By Kd is commonly meant a measure of binding affinity in units of concentration. The low end stands for higher affinity, the high end for lower affinity. In general, IC50 refers to the midpoint of a concentration-inhibition curve. A higher IC50 goes with weaker potency.

The record followed here is article PMC4019507, “From Arylamine N-Acetyltransferase to Folate-Dependent Acetyl CoA Hydrolase: Impact of Folic Acid on the Activity of (HUMAN)NAT1 and Its Homologue (MOUSE)NAT2” (PLoS ONE, 2014).

What all share (format): biochemical
For assay [1], the target named is T1, (HUMAN)NAT1, human arylamine N-acetyltransferase Type 1 (Homo sapiens, UniProt P18440).
T1 construct: pure recombinant
T1 sequence (P18440 1-290): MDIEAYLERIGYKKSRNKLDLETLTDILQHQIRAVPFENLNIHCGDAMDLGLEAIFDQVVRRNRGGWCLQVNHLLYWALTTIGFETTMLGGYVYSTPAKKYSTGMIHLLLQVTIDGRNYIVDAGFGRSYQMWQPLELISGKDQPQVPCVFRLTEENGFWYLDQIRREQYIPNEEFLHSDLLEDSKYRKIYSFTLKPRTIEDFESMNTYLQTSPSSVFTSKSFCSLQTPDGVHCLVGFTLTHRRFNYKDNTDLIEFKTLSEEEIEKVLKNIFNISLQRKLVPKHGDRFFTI
As to the kind of experiment: folate concentration dependence of AcCoA hydrolysis (Michaelis-Menten fit); HPLC time course.

In assay [2] the target is T2, (MOUSE)NAT2, murine arylamine N-acetyltransferase Type 2 (Mus musculus, UniProt P50295).
T2 construct: pure recombinant
T2 sequence (P50295 1-290): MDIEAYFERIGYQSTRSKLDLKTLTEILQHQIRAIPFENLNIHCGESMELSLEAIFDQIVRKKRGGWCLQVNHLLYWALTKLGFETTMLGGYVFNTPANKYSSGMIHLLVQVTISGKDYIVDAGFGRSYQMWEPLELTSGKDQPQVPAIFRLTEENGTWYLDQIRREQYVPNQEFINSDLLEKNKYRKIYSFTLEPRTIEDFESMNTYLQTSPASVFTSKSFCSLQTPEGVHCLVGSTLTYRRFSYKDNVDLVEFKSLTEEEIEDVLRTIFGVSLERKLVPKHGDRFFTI
As to the kind of experiment: folate concentration dependence of AcCoA hydrolysis (Michaelis-Menten fit); real-time 1H-NMR of turnover.

Assay [3] has as its target T1, (HUMAN)NAT1, human arylamine N-acetyltransferase Type 1. As to the kind of experiment: HPLC time course of hydrolysis to CoA.
Assay [4] concerns the target T2, (MOUSE)NAT2, murine arylamine N-acetyltransferase Type 2. As to the kind of experiment: real-time 1H-NMR and DTNB assay of hydrolysis to CoA and acetate.
For assay [5] the target is unchanged. As to the kind of experiment: DTNB colorimetric assay of folate-dependent AcCoA hydrolysis, dose response. The source says:
DTNB colorimetric assay of folate-dependent AcCoA hydrolysis, dose response on (MOUSE)NAT2, murine arylamine N-acetyltransferase Type 2 | its concentration dependence was characterised (Figure 6C).

For assay [6] the target is unchanged. As to the kind of experiment: DTNB colorimetric hydrolysis assay.

Consider `Nc1nc2ncc(CNc3ccc(C(=O)N[C@@H](CCC(=O)O)C(=O)O)cc3)nc2c(=O)[nH]1` [folate], for which the figures for the Kd in assay [1] and in assay [2] were approximately 75 µM and approximately 71 µM, respectively.
Take `CC(=O)SCCNC(=O)CCNC(=O)[C@H](O)C(C)(C)COP(=O)(O)OP(=O)(O)OC[C@H]1O[C@@H](n2cnc3c(N)ncnc32)[C@H](O)[C@@H]1OP(=O)(O)O` [acetyl Coenzyme A]: the “specific rate of hydrolysis to CoA” value in assay [3] worked out at 583 µM/s/mg. Also, the “specific rate of hydrolysis to CoA and acetate” value in assay [4] was 360 µM/s/mg.
With `Cc1cc(C)cc(NC2=C(NS(=O)(=O)c3ccccc3)C(=O)c3ccccc3C2=O)c1` [compound 1, naphthoquinone 1], in assay [5], the IC50 stood at 0.14 µM.
Take `CCC(=O)SCCNC(=O)CCNC(=O)[C@H](O)C(C)(C)COP(=O)(O)OP(=O)(O)OC[C@H]1O[C@@H](n2cnc3c(N)ncnc32)[C@H](O)[C@@H]1OP(=O)(O)O` [n-propionyl CoA]: in assay [6], the “specific acetyl-CoA hydrolysis rate” value came to 290 µM/s/mg.
